This assay has as its system PGE2 production of arthrosis chondrocytes. Briefly: PGE2 production of arthrosis chondrocytes (radioimmunoassay of culture media, per μg DNA). Type of assay: cell-based, human. The settings on record: 10 μg/ml of the composition in culture medium, 48 h, chondrocytes of osteoarthritis patients, compared with basal conditions (9±4 pg PGE2 per μg DNA). Here is the method:
Thin slices of cartilage of patients suffering from osteoarthritis were excised while avoiding the calcified layer. They were washed several times in DMEM medium containing HEPES, penicillin and streptomycin. The slices of cartilage were then cut into small fragments of a few cubic millimeters.
Chondrocytes were then isolated from the extracellular matrix by a succession of enzymatic digestions. The cartilage fragments were incubated at 37° C. under constant agitation in the basic medium with, successively, hyaluronidase, pronase E and finally with clostridial collagenase.
The cells were then filtered through a 70 μm nylon membrane, washed with DMEM and counted using a Neubauer plate. […]
The cultures were maintained at 37° C. in an atmosphere of 95% air and 5% CO2. At the end of the incubation period, the culture media were taken and stored at −20° C. until they were analysed. […]
Deoxyribonucleic acid (DNA) was quantified according to the technique of Labarca and Paigen (Labarca C. and Paigen K. A simple, rapid, and sensitive DNA assay procedure, Anal Biochem, 1980. 102: 344-52). This method is based on the principle of fluorescence emitted by a reagent, bis-benzimidazole, when it binds to DNA. […] After 1 h of incubation, the samples were read with a fluorometer using an excitation wavelength of 356 nm and an emission wavelength of 458 nm. […]

With vitamin K2 [composition 4], the “quantity of PGE2 produced” value is “remains constant”.

The values above are taken from patent US9282759B2, “Composition including an unsaponifiable fraction” (LABORATOIRES EXPANSCIENCE, priority 2009, dated 2016).
